According to patent publication US11980607B2, “Methods of treating malignant lymphoproliferative disorders” (Actuate Therapeutics Inc., priority 2018, dated 2024):

Legend:
[1] = system: phospho-c-MYC in KPUM-UH1 cells; test: Western blot analysis of c-MYC; format: cell-based; conditions: KPUM-UH1 double-hit lymphoma cell line
Protocol: c-MYC levels were analyzed in KPUM-UH1 cells via western blot for 9-ING-41 alone and the combination of 9ING-41 with either Venetoclax or BAY-1143572. Around 10 million cells were spun down at 200 rcf for 5 minutes and rinsed once with PBS before lysing in 50 μl of Millipore Milliplex MAP lysis buffer supplemented with protease and phosphatase inhibitors (Roche). Protein denatured in 4× sample buffer supplemented with β-mercaptoethanol (Bio-Rad) was loaded per well. Bio-Rad stain-free Criterion 4-20% precast gels were used. After running the gel at 140 volts for 90 minutes, Bio-Rad gel imager was used to activate the stain-free technology to visualize the total protein levels loaded in the gel. A nitrocellulose turbo-transfer pack and system (Bio-Rad) was then used to transfer the proteins to the membrane, and 5% w/v dry milk in Tris-buffered saline-0.1% Tween 20 (TBS-T) was used to block the membranes for 1 hour. Membranes were then incubated with the primary antibody diluted in 5% BSA in TBS-T overnight. Membranes were then rinsed in TBS-T 3 times (one 15 minute wash and two 5 minutes washes) and then incubated with the corresponding secondary antibody-conjugated with HRP for 1 hour and rinsed with TBS-T as before. […] Quantification of the band intensities were performed using Image J software (NIH).

Mantle Cell lymphoma = test: Treatment of Mantle Cell Lymphoma in a human; format: in vivo; conditions: 3 mg/kg per day, six 21 day cycles
Protocol: A human suffering from Mantle Cell lymphoma is administered 3 mg/kg per day of 9-ING-41 for six 21 day cycles. After treatment, the human's MCL is in remission.

TCL and MCL lines = test: Apoptosis assay in TCL and MCL lines; format: cell-based, human; conditions: low doses, 48 hours
Protocol: Unstimulated peripheral blood B- and T-lymphocytes isolated from a healthy donor were used as normal control. Pro-apoptotic effect of the GSK3 inhibitor 9-ING-41 in various MCL and TCL lines (A) and DLBCL lines (B). (C) Cell proliferation profile of various lymphoma cell lines upon treatment with 9-ING-41. Results (A-C) are from 3 independent experiments.
Cells were seeded at 5×10^5 cells/well in 24 well plates, and incubated with 9-ING-41 at indicated concentrations for 48 hours. The cells were then stained with FITC conjugated Annexin V (Life Technologies) and Propidium Iodide followed by analysis on a BD FACS Calibur flow cytometer.
Given that both GSK3α and GSK3β are overexpressed in lymphoma cells, and that both enzymes are implicated in multiple signaling pathways critical for cell functions, whether GSK3α and GSK3β are functionally supporting the survival and proliferation of lymphoma cells was examined. […] The inhibitory concentrations of 9-ING-41 at half of the maximal effect (IC50) on cell survival of various lymphoma cell lines was calculated (Table 1).

[2] = system: GSK3β localization in Jeko cells; test: Immunofluorescence staining for GSK3β localization; format: cell-based, human; conditions: 9-ING-41 treated Jeko cells
Protocol: (B) A close-up (magnification) image of that shown in (A). […] (L) A close-up image of a mitotic cell shown in (K). (M) An overlay image showing the microtubule structure by α-tubulin (red) staining and DNA (in blue). (N) A close-up image of that shown in (M). […] (R) A close-up image of a representative mitotic cell shown in (Q). All other immunostainings of GSK3β and α-Tubulin on cytospin preparations of lymphoma cells were fixed with 4% paraformaldehyde in PBS for 15 min at room temperature followed by permeabilization and the same staining steps as above. The cells were analyzed and imaged on a conventional Zeiss microscope or a Zeiss LSR 780 confocal microscope. To determine the intracellular localization of GSK3β in mitotic cells, GSK3β localization in normal mitotic Jeko cells was analyzed. […] The localization of GSK3β in 9-ING-41 treated Jeko cells (FIG. 8Q-R) was determined.

Jeko cells = test: Mitotic stage morphology (Wright stain, differential counting); format: cell-based, human; conditions: 1.0 uM, 24 hours
Protocol: (A) Cartoon depiction of the sequential steps (M1-M5) during mitosis (purchased from Shutterstock and modified). (B). Representative Wright stain images of Jeko cells untreated and treated with 1.0 uM 9-ING-41 for 24 hours. […] (C). Bar chart showing the number of mitotic M1-M5 cells identified when 100 untreated or 9-ING-41 treated Jeko cells were counted.
Although cells arrested in G2/M appear as a single DNA content (4N) peak on a flow cytometry histogram (FIG. 6A), there are actually at least 5 sequential steps (M1-M5) in G2/M critical to successful cell division. These include prophase (M1, chromosome condensation, mitotic spindle formation starts), prometaphase (M2, nuclear membrane breakdown, centrosome polarization), metaphase (M3, chromosome pairs align middle plane), anaphase (M4, daughter chromatids separate), telophase (M5, reformation of daughter nuclei), and the final cytokinesis (separation of two daughter cells). Each of these discrete steps has a unique identifiable nuclear morphology on Wright's stained cells (depicted in FIG. 7A). The morphology of untreated and 9-ING-41 treated Jeko cells to determine at what stage they become arrested was examined. […] These observations support the conclusion that GSK3 activity is necessary for the progression of mitotic prophase.

Mino = test: Proliferation assay (thymidine uptake); format: cell-based; conditions: Homo sapiens; Mino (MCL), 48 hours then thymidine pulse; read-out: IC50 (μM) on Cell proliferation
Protocol: (§1) Cells were seeded at 1×10^4 cells/well in 96 well plates, and incubated with 9-ING-41 at indicated concentrations for 48 hours followed by pulsing with tritium labeled thymidine for overnight before being analyzed for thymidine uptake.
(§2) The IC50S of 9-ING-41 on cell survival and proliferation was calculated using an on-line IC50 calculation tool (https://www.aatbio.com/tools/ic50-calculator/).
(§3) 9-ING-41 can specifically induce lymphoma cell apoptosis without affecting normal lymphocytes. The thymidine incorporation assay in the presence or absence of 9-ING-41 was performed to test the role of GSK3 in lymphoma cell proliferation. […] The DLBCL lines required slightly higher concentrations. The IC50 of 9-ING-41 on cell proliferation for various lymphoma cell lines was calculated (Table 1).

OCI-LY1 = test: Proliferation assay (thymidine uptake); format: cell-based; conditions: Homo sapiens; OCI-LY1 (DLBCL), 48 hours then thymidine pulse; read-out: IC50 (μM) on Cell proliferation
Protocol: as §1, §2, §3

Karpas-299 = test: Proliferation assay (thymidine uptake); format: cell-based; conditions: Homo sapiens; Karpas-299 (TCL), 48 hours then thymidine pulse; read-out: IC50 (μM) on Cell proliferation
Protocol: as §1, §2, §3

OCI-Ly3 = test: Proliferation assay (thymidine uptake); format: cell-based; conditions: Homo sapiens; OCI-Ly3 (DLBCL), 48 hours then thymidine pulse; read-out: IC50 (μM) on Cell proliferation
Protocol: as §1, §2, §3

SeAx = test: Proliferation assay (thymidine uptake); format: cell-based; conditions: Homo sapiens; SeAx (TCL), 48 hours then thymidine pulse; read-out: IC50 (μM) on Cell proliferation
Protocol: as §1, §2, §3

SMILES: Cn1cc(C2=C(c3coc4ccc(F)cc34)C(=O)NC2=O)c2cc3c(cc21)OCO3 [9-ING-41, 3-(5-Fluorobenzofuran-3-yl)-4-(5-methyl-5H-[1,3]dioxolo[4,5-f]indol-7-yl)pyrrole-2,5-dione]
- Effect on phospho-c-MYC [1]: phospho-c-MYC is modified
- Outcome after treatment (Mantle Cell lymphoma): in remission
- Apoptosis in TCL and MCL lines (TCL and MCL lines): induced apoptosis
- Effect on localization of GSK3β [2]: did not alter the localization of GSK3β
- Mitotic stages seen among 100 mitotic cells (Jeko cells): only prophase (M1) cells
- IC50 (Mino): 0.72 µM
- IC50 (OCI-LY1): 0.69 µM
- IC50 (Karpas-299): 0.26 µM
- IC50 (OCI-Ly3): 1.03 µM
- IC50 (SeAx): 0.38 µM
